For assay [1], the system named is Aortic ring. The assay is described as follows: Induction of contraction in Albino Wistar rat aortic ring assessed as Emax of hU-II at 1 uM incubated for 30 mins in presence of hU-II (reference value: 238.4 +/- 9.53 dyne/mg). Format: functional, Aorta. The conditions noted are these: 0.5 h.
Assay [2] relates to Aortic ring. The assay is described as follows: Induction of contraction in Albino Wistar rat aortic ring assessed as Emax of U-II(4-11) at 0.1 uM incubated for 30 mins in presence of U-II(4-11) (reference value: 159.8 +/- 7.3 dyne/mg). The format is functional, Aorta. The conditions noted are these: 0.5 h.
Assay [3] concerns Aortic ring. The assay is described as follows: Induction of contraction in Albino Wistar rat aortic ring assessed as Emax of [Ala1]U-II at 10 uM incubated for 30 mins in presence of [Ala1]U-II (reference value: 323 +/- 30.45 dyne/mg). Format: functional, Aorta. The following applies: 0.5 h.
For assay [4], the system named is Aortic ring. The assay can be described thus: Induction of contraction in Albino Wistar rat aortic ring assessed as Emax of U-II(4-11) at 1 uM incubated for 30 mins in presence of U-II(4-11) (reference value: 152.4 +/- 5.1 dyne/mg). The following applies: 0.5 h. The format is functional, Aorta.
For assay [5], the system named is Aortic ring. The assay is described as follows: Induction of contraction in Albino Wistar rat aortic ring assessed as Emax of U-II(4-11) at 10 uM incubated for 30 mins in presence of U-II(4-11) (reference value: 242.6 +/- 20.63 dyne/mg). Format: functional, Aorta. The conditions noted are these: 0.5 h.
Assay [6] has as its system Aortic ring. The assay can be described thus: Induction of contraction in Albino Wistar rat aortic ring assessed as Emax of hU-II at 10 uM incubated for 30 mins in presence of hU-II (reference value: 279.9 +/- 11.02 dyne/mg). The format is functional, Aorta. The following applies: 0.5 h.
Assay [7] relates to Aortic ring. The assay can be described thus: Induction of contraction in Albino Wistar rat aortic ring assessed as Emax of [Ala1]U-II at 0.1 uM incubated for 30 mins in presence of [Ala1]U-II (reference value: 153.3 +/- 10.75 dyne/mg). Format: functional, Aorta. The conditions noted are these: 0.5 h.
In assay [8] the test system is Aortic ring. The assay can be described thus: Induction of contraction in Albino Wistar rat aortic ring assessed as Emax of hU-II at 0.1 uM incubated for 30 mins in presence of hU-II (reference value: 214.5 +/- 10.51 dyne/mg). The following applies: 0.5 h. Format: functional, Aorta.
The subject of assay [9] is Aortic ring. The assay is described as follows: Induction of contraction in Albino Wistar rat aortic ring at 1 to 30 nM. The format is functional, tissue-based. The following applies: Aorta, dose 1-30 nM.
The subject of assay [10] is Aortic ring. The assay can be described thus: Induction of contraction in Albino Wistar rat aortic ring assessed as Emax of [Ala1]U-II at 1 uM incubated for 30 mins in presence of [Ala1]U-II (reference value: 391.6 +/- 38.83 dyne/mg). The conditions noted are these: 0.5 h. The format is functional, Aorta.
The subject of assay [11] is Aortic ring. The assay is described as follows: Induction of contraction in Albino Wistar rat aortic ring assessed as Emax of hU-II at 1 uM incubated for 30 mins in presence of hU-II (reference value: 279.9 +/- 11.02 dyne/mg). The format is functional, Aorta. The conditions noted are these: 0.5 h.
Assay [12] relates to Aortic ring. The assay can be described thus: Induction of contraction in Albino Wistar rat aortic ring assessed as Emax of U-II(4-11) at 0.1 uM incubated for 30 mins in presence of U-II(4-11) (reference value: 152.4 +/- 5.1 dyne/mg). The format is functional, Aorta. The conditions noted are these: 0.5 h.
Assay [13] has as its system Aortic ring. The assay can be described thus: Induction of contraction in Albino Wistar rat aortic ring assessed as Emax of [Ala1]U-II at 10 uM incubated for 30 mins in presence of [Ala1]U-II (reference value: 220.3 +/- 17.48 dyne/mg). The following applies: 0.5 h. Format: functional, Aorta.
The test system of assay [14] is Aortic ring. The assay is described as follows: Induction of contraction in Albino Wistar rat aortic ring assessed as Emax of [Ala1]U-II at 0.1 uM incubated for 30 mins in presence of [Ala1]U-II (reference value: 391.6 +/- 38.83 dyne/mg). Format: functional, Aorta. The following applies: 0.5 h.
Assay [15] relates to Aortic ring. The assay can be described thus: Induction of contraction in Albino Wistar rat aortic ring assessed as Emax of hU-II at 0.1 uM incubated for 30 mins in presence of hU-II (reference value: 238.4 +/- 9.53 dyne/mg). The format is functional, Aorta. The following applies: 0.5 h.
In assay [16] the target is T1, Urotensin-2 receptor (Homo sapiens) (UniProt Q9UKP6).
T1 sequence (whole entry): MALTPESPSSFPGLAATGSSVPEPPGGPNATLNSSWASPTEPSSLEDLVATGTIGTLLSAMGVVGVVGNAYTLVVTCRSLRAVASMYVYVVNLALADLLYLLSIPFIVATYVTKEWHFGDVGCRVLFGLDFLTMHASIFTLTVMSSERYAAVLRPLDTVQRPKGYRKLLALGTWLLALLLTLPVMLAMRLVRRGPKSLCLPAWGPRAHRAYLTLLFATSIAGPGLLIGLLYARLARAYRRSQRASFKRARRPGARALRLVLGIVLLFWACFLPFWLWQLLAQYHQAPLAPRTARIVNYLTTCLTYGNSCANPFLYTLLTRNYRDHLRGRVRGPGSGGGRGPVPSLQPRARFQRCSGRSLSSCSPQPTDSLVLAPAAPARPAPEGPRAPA
The assay can be described thus: Modulation of human UTR stably expressed in HEK293 cells assessed as increase in Ca2+ level at 0.1 to 100 nM by Fura 2-AM dye based calcium mobilization assay. Format: functional, cell-based. The conditions noted are these: dose 0.1-100 nM.

Assay [17] has as its system Aortic ring. The assay is described as follows: Induction of contraction in Albino Wistar rat aortic ring assessed as Emax of [Ala1]U-II at 1 uM incubated for 30 mins in presence of [Ala1]U-II (reference value: 323 +/- 30.45 dyne/mg). The format is functional, Aorta. The following applies: 0.5 h.
Assay [18] relates to Aortic ring. The assay can be described thus: Induction of contraction in Albino Wistar rat aortic ring assessed as Emax of hU-II at 10 uM incubated for 30 mins in presence of hU-II (reference value: 251.4 +/- 15.43 dyne/mg). Format: functional, Aorta. The conditions noted are these: 0.5 h.
In assay [19] the test system is Aortic ring. The assay is described as follows: Induction of contraction in Albino Wistar rat aortic ring assessed as Emax of U-II(4-11) at 1 uM incubated for 30 mins in presence of U-II(4-11) (reference value: 242.6 +/- 20.63 dyne/mg). The conditions noted are these: 0.5 h. The format is functional, Aorta.
The subject of assay [20] is Aortic ring. The assay can be described thus: Induction of contraction in Albino Wistar rat aortic ring assessed as Emax of U-II(4-11) at 10 uM incubated for 30 mins in presence of U-II(4-11) (reference value: 159.8 +/- 7.39 dyne/mg). The format is functional, Aorta. The conditions noted are these: 0.5 h.
Assay [21] concerns Aortic ring. The assay can be described thus: Induction of contraction in Albino Wistar rat aortic ring assessed as Emax of [Ala1]U-II at 0.1 uM incubated for 30 mins in presence of [Ala1]U-II (reference value: 220.3 +/- 17.48 dyne/mg). Format: functional, Aorta. The following applies: 0.5 h.
The subject of assay [22] is Aortic ring. The assay can be described thus: Induction of contraction in Albino Wistar rat aortic ring assessed as Emax of [Ala1]U-II at 10 uM incubated for 30 mins in presence of [Ala1]U-II (reference value: 153.3 +/- 10.75 dyne/mg). The format is functional, Aorta. The following applies: 0.5 h.
Assay [23] relates to Aortic ring. The assay can be described thus: Induction of contraction in Albino Wistar rat aortic ring assessed as Emax of hU-II at 10 uM incubated for 30 mins in presence of hU-II (reference value: 238.4 +/- 9.53 dyne/mg). Format: functional, Aorta. The conditions noted are these: 0.5 h.
Assay [24] concerns Aortic ring. The assay can be described thus: Induction of contraction in Albino Wistar rat aortic ring assessed as Emax of U-II(4-11) at 1 uM incubated for 30 mins in presence of U-II(4-11) (reference value: 159.8 +/- 7.39 dyne/mg). The format is functional, Aorta. The conditions noted are these: 0.5 h.
In assay [25] the test system is Aortic ring. The assay can be described thus: Induction of contraction in Albino Wistar rat aortic ring assessed as Emax of hU-II at 0.1 uM incubated for 30 mins in presence of hU-II (reference value: 224.8 +/- 11.71 dyne/mg). The format is functional, Aorta. The following applies: 0.5 h.
Assay [26] relates to Aortic ring. The assay is described as follows: Induction of contraction in Albino Wistar rat aortic ring assessed as Emax of U-II(4-11) at 10 uM incubated for 30 mins in presence of U-II(4-11) (reference value: 159.8 +/- 7.3 dyne/mg). The format is functional, Aorta. The following applies: 0.5 h.
The test system of assay [27] is Aortic ring. The assay is described as follows: Induction of contraction in Albino Wistar rat aortic ring assessed as Emax of hU-II at 1 uM incubated for 30 mins in presence of hU-II (reference value: 214.5 +/- 10.51 dyne/mg). The format is functional, Aorta. The conditions noted are these: 0.5 h.
In assay [28] the test system is Aortic ring. The assay is described as follows: Induction of contraction in Albino Wistar rat aortic ring assessed as Emax of [Ala1]U-II at 1 uM incubated for 30 mins in presence of [Ala1]U-II (reference value: 308.1 +/- 21.4 dyne/mg). The format is functional, Aorta. The following applies: 0.5 h.
Assay [29] concerns Aortic ring. The assay can be described thus: Induction of contraction in Albino Wistar rat aortic ring assessed as Emax of U-II(4-11) at 0.1 uM incubated for 30 mins in presence of U-II(4-11) (reference value: 242.6 +/- 20.63 dyne/mg). The conditions noted are these: 0.5 h. Format: functional, Aorta.

Activity calls are given as the source filed them. The calls are words filed in the database; no cut-off is given here.

With `CC(C)[C@H](NC(=O)[C@@H]1CSSC(C)(C)[C@H](NC(=O)[C@H](C)NC(=O)[C@@H]2CCCN2C(=O)[C@@H](NC(=O)[C@H](C)N)[C@@H](C)O)C(=O)N[C@@H](Cc2ccccc2)C(=O)N[C@H](Cc2c[nH]c3ccccc23)C(=O)N[C@@H](CCCN)C(=O)N[C@@H](Cc2ccc(O)cc2)C(=O)N1)C(=O)O`, the Emax with Aortic ring [1] is reported as 231.1 dyn/mg; with Aortic ring [2] it was 354.4 dyn/mg; with Aortic ring [3] it was 457.6 dyn/mg; with Aortic ring [4], 502.2 dyn/mg; in the assay on Aortic ring [5], 261.8 dyn/mg; in the assay with Aortic ring [6], 126.2 dyn/mg. Moreover, the Emax with Aortic ring [7] came out at 406.4 dyn/mg; in the assay with Aortic ring [8] it was 386.5 dyn/mg; in the assay with Aortic ring [10], 593 dyn/mg. The result in the assay on Aortic ring [9] was inactive.
Turning to `CC(C)[C@H](NC(=O)[C@@H]1CSSC(C)(C)[C@H](NC(=O)[C@H](CC(=O)O)NC(=O)[C@@H]2CCCN2C(=O)[C@@H](NC(=O)[C@@H](N)CCO)[C@@H](C)O)C(=O)N[C@@H](Cc2ccccc2)C(=O)N[C@H](Cc2c[nH]c3ccccc23)C(=O)N[C@@H](CCCN)C(=O)N[C@@H](Cc2ccc(O)cc2)C(=O)N1)C(=O)O`, the Emax in the assay with Aortic ring [11] was determined as 188.6 dyn/mg; in the assay on Aortic ring [12], 120.9 dyn/mg; in the assay with Aortic ring [13], 148.9 dyn/mg; in the assay on Aortic ring [14], 251.5 dyn/mg; with Aortic ring [15] it was 179.2 dyn/mg; in the assay with Aortic ring [17], 119.1 dyn/mg. Further, the Emax came to 181.9 dyn/mg with Aortic ring [18], 93.38 dyn/mg in the assay on Aortic ring [19] and 111.3 dyn/mg in the assay with Aortic ring [20]. In addition, the outcome (in [16]; in the assay on Aortic ring [9]) was inactive.
Take `CC(C)[C@H](NC(=O)[C@@H]1CSSC(C)(C)[C@H](NC(=O)[C@H](CC(=O)O)NC(=O)[C@@H]2CCCN2C(=O)[C@@H](NC(=O)[C@H](C)N)[C@@H](C)O)C(=O)N[C@@H](Cc2ccccc2)C(=O)N[C@H](Cc2c[nH]c3ccccc23)C(=O)N[C@@H](CCCN)C(=O)N[C@@H](Cc2ccc(O)cc2)C(=O)N1)C(=O)O`: the Emax in the assay on Aortic ring [21] worked out at 373.5 dyn/mg; in the assay on Aortic ring [22] it was 285 dyn/mg; in the assay on Aortic ring [23], 320.8 dyn/mg; in the assay with Aortic ring [24] it was 248.2 dyn/mg; in the assay with Aortic ring [25] it was 264.3 dyn/mg; in the assay with Aortic ring [26], 541.8 dyn/mg. The Emax worked out at 315.6 dyn/mg in the assay with Aortic ring [27], 121.9 dyn/mg with Aortic ring [28] and 263 dyn/mg with Aortic ring [29]. The result in assay [16] (filed as modulator) was Active. For the same compound, the outcome in the assay with Aortic ring [9] was inactive.

The values are drawn from ChEMBL document CHEMBL5550214, “Expanding Structure-Activity Relationships of Human Urotensin II Peptide Analogues: A Proposed Key Role of the N-Terminal Region for Novel Urotensin II Receptor Modulators” (J Med Chem, 2024).
